Measurements taken from PMC11858513, “Antibiofilm Activities of Tritrpticin Analogs Against Pathogenic Pseudomonas aeruginosa PA01 Strains” (Molecules, 2025).
In brackets after ≈: the same amount, converted by molar mass. Where two headings read alike, the source gives them in different places. Non-standard residues stand in square brackets, D forms with d. Residues, ends and D or L forms follow the SMILES beside them. Orn = NCCC[C@H](N)C(=O)O; Dab = NCC[C@H](N)C(=O)O

What was measured:
P. aeruginosa PAO1 GFP [1] = experiment: MBIC, prevention of biofilm formation, GFP fluorescence method; type: cell-based, Pseudomonas aeruginosa
Description: (§1) Figure 1 The MIC (A), MBIC (B) and MBEC (C) values for the tritrpticin analog peptides were assessed against Pa PAO1 GFP. The MIC values were determined by measuring the absorbance of bacterial cells at 600 nm. The MBIC and MBEC values were determined by recording the fluorescence at 480 nm and 530 nm from the biofilms of GFP-expressing PAO1. Three biological replicates were run for each test sample, and the mean was calculated for the recorded absorption or fluorescence values. In the graphs, the error bars represent the standard deviation (±SD).
(§2) Figure 2 The MIC (A), MBIC (B) and MBEC (C) values for the tritrpticin-Lys derivative peptides were assessed against Pa PAO1 GFP. The MIC values were determined by measuring the absorbance of bacterial cells at 600 nm. The MBIC and MBEC values were determined by recording the fluorescence at 480 nm and 530 nm from the biofilms of GFP-expressing PAO1. Three replicates were run for each sample, the values were averaged and the error bars represent the standard deviation (±SD).
(§3) The methods to determine the MIC, MBIC and MBEC have been described in detail in our previous publication. The green fluorescent protein (GFP)-producing P. aeruginosa and S. aureus strains that were used in this work were also described in the earlier publication. Fluorescence detection was used as the main method to estimate the number of cells entrapped in the biofilm matrix. The methodology used for evaluation of the antibiofilm properties against an original Pseudomonas PA01 strain by crystal violet dye staining and the use of the Calgary biofilm device has been described elsewhere. The regular PA01 strain was provided by Dr. J. Harrison, Calgary. All measurements were carried out on an Eppendorf AF2200 plate reader. Every 96-well plate included controls for bacterial cell growth without peptide treatment and media alone. All measurements were carried out in triplicate, and the values in the figures represent the average and the error bars are standard deviation.

P. aeruginosa PAO1 [2] = type: cell-based
Description: (§4) We note the close agreement with the MBIC and MBEC values determined by the fluorescence and CV methods, similar to what we found in our previous work for an S. aureus MRSA strain [23]. We also re-evaluated the MBEC values that are measured using the Calgary biofilm device (CBD), where biofilms form on pegs, rather than at the bottom of the 96-well plates. […] In particular, we find that the single Pro9Ala Tritrp-P9A-substituted version has better MIC, MBIC and MBEC activities than the parent peptide as well as the Tritrp-P59A analog with both prolines substituted to Ala.
(§5) Figure 4 The MIC (A), MBIC (B) and MBRC (C) values for the peptides were assessed against P. aeruginosa PAO1 in the presence of 1× BM2. The inhibition of planktonic cells, the inhibition of biofilm cells and the reduction in biofilm cells were determined for the peptides by recording of the planktonic cells at 600 nm and quantification of biofilms formed by Pa PAO1 using crystal violet at 595 nm, respectively. Three biological replicates were run for each test sample, and the mean was calculated for the recorded absorption values. Data points with error bars indicate the standard deviation (±SD).
(§6) Figure 6 The MIC (A), MBIC (B) and MBEC (C) values for the tritrpticin-Lys derivatives against P. aeruginosa PAO1 were assessed by the crystal violet (CV) assay for the measurement of inhibition of biofilm formation and eradication of biofilm cells, respectively. The biofilm cells were rinsed, stained with 0.1% crystal violet for 15 min and then rinsed again. The CV was released from biofilm cells by the addition of 95% ethanol and quantified by reading on a spectrometer at 595 nm. Three replicates were run for each sample, the values were averaged and the error bars represent the standard deviation (±SD).
as §3

P. aeruginosa PAO1 GFP [3] = experiment: MBEC, biofilm eradication, GFP fluorescence method; type: cell-based, Pseudomonas aeruginosa
Description: as §1, §2, §3

S. aureus GFP [4] = experiment: MIC against planktonic cells, absorbance at 600 nm; type: cell-based, Staphylococcus aureus; settings: Table 4; Sa GFP, 10% TSB and 0.1% glucose; absorbance 600 nm; mean of three biological replicates
Description: as §1, with “3” for “1”, “Sa” for “Pa PAO1”, “Sa.” for “PAO1.”
as §3

P. aeruginosa PAO1 GFP [5] = experiment: MIC against planktonic cells, absorbance at 600 nm; type: cell-based, Pseudomonas aeruginosa; settings: absorbance 600 nm
Description: as §1, §2, §3

P. aeruginosa PAO1 [6] = type: cell-based, Pseudomonas aeruginosa; settings: Table 5; PAO1, 1x BM2; biofilms on pegs, cells plated and counted; three biological replicates
Description: as §4
Figure 5 The MBEC values for the peptides were assessed against P. aeruginosa PAO1 in the presence of 1× BM2 medium. The eradication of biofilm cells was determined for the peptides using the counting of biofilm cells formed by Pa PAO1. Three biological replicates were run for each test sample, and the mean was calculated for counted cell values. Data points with error bars indicate the standard deviation (±SD).
as §3

S. aureus GFP [7] = experiment: MBIC, GFP fluorescence method; type: cell-based, Staphylococcus aureus; settings: Table 4, Sa GFP, 10% TSB and 0.1% glucose, mean of three biological replicates
Description: as §1, with “3” for “1”, “Sa” for “Pa PAO1”, “Sa.” for “PAO1.”
as §3

S. aureus GFP [8] = experiment: MBEC, GFP fluorescence method; type: cell-based, Staphylococcus aureus; settings: Table 4, Sa GFP, 10% TSB and 0.1% glucose, mean of three biological replicates
Description: as §1, with “3” for “1”, “Sa” for “Pa PAO1”, “Sa.” for “PAO1.”
as §3

S. aureus GFP [9] = type: cell-based, Staphylococcus aureus; settings: Table 4; Sa GFP; lowest concentration of peptide with no bacterial growth seen on the spot agar plate
From the text: as §3

P. aeruginosa PAO1 [10] = type: cell-based, Pseudomonas aeruginosa; settings: Table 6, Tritrp-Lys derivatives; PAO1, BM2; absorbance 600 nm; three replicates; unit not given
Description: as §5, §6, §3

[11] = Table 2, BM2 medium, mean of three biological replicates
[12] = Table 5, PAO1, 1x BM2, crystal violet at 595 nm, mean of three biological replicates
[13] = Table 5, minimum biofilm reduction concentration, PAO1, 1x BM2, crystal violet at 595 nm, mean of three biological replicates
[14] = Table 3, Tritrp-Lys derivatives, BM2 medium, three replicates
[15] = Table 6, Tritrp-Lys derivatives, PAO1, BM2, 0.1% crystal violet 15 min, released with 95% ethanol, 595 nm, three replicates, unit not given

| Structure (SMILES) | MBIC at 488 and 530 nm LD50 (P. aeruginosa PAO1 GFP [1]; [11]) | MBIC at 488 and 530 nm LD90 (P. aeruginosa PAO1 GFP [1]; [11]) | MBEC at 488 and 530 nm LD50 (P. aeruginosa PAO1 GFP [3]; [11]) | MBEC at 488 and 530 nm LD90 (P. aeruginosa PAO1 GFP [3]; [11]) | MIC at 600 nm LD50 (S. aureus GFP [4]) | MIC at 600 nm LD90 (S. aureus GFP [4]) | MIC at 600 nm LD50 (P. aeruginosa PAO1 GFP [5]; [11]) | MIC at 600 nm LD90 (P. aeruginosa PAO1 GFP [5]; [11]) | MBIC at 488 and 530 nm LD50 (S. aureus GFP [7]) | MBIC at 488 and 530 nm LD90 (S. aureus GFP [7]) | MBEC at 488 and 530 nm LD50 (S. aureus GFP [8]) | MBEC at 488 and 530 nm LD90 (S. aureus GFP [8]) | MBC Agar Plate (S. aureus GFP [9]) | MBIC at 488 and 530 nm LD50 (P. aeruginosa PAO1 GFP [1]; [14]) | MBIC at 488 and 530 nm LD90 (P. aeruginosa PAO1 GFP [1]; [14]) | MBEC (CV at 595 nm) LD90 (P. aeruginosa PAO1 [2]; [15]) | MBIC (CV at 595 nm) LD90 (P. aeruginosa PAO1 [2]; [15]) | MIC at 600 nm LD50 (P. aeruginosa PAO1 [10]) | MIC at 600 nm LD90 (P. aeruginosa PAO1 [10]) | MBEC at 488 and 530 nm LD50 (P. aeruginosa PAO1 GFP [3]; [14]) | other results |
| --- | --- | --- | --- | --- | --- | --- | --- | --- | --- | --- | --- | --- | --- | --- | --- | --- | --- | --- | --- | --- | --- |
| CC[C@H](C)[C@H](N)C(=O)N[C@@H](CC(C)C)C(=O)N1CCC[C@H]1C(=O)N[C@@H](Cc1c[nH]c2ccccc12)C(=O)N[C@@H](CCCCN)C(=O)N[C@@H](Cc1c[nH]c2ccccc12)C(=O)N1CCC[C@H]1C(=O)N[C@@H](Cc1c[nH]c2ccccc12)C(=O)N[C@@H](Cc1c[nH]c2ccccc12)C(=O)N1CCC[C@H]1C(=O)N[C@@H](Cc1c[nH]c2ccccc12)C(=O)N[C@@H](CCCNC(=N)N)C(=O)N[C@@H](CCCNC(=N)N)C(N)=O [Indolicidin, reference compound] | 8 µmol/L | 32 µmol/L | 32 µmol/L | >128 µmol/L | 4 µM (≈ 7.63 µg/mL) | 8 µM (≈ 15.3 µg/mL) | 8 µM (≈ 15.3 µg/mL) | 32 µM (≈ 61 µg/mL) | 4 µmol/L | 8 µmol/L | 2 µmol/L | 8 µmol/L | 8 µM (≈ 15.3 µg/mL) |  |  |  |  |  |  |  | MBIC (CV at 595 nm) LD50 (P. aeruginosa PAO1 [2]; [12]): 32 µmol/L; MBIC (CV at 595 nm) LD90 (P. aeruginosa PAO1 [2]; [12]): 32 µmol/L; MBRC (CV at 595 nm) LD50 (P. aeruginosa PAO1 [2]; [13]): 64 µmol/L; MBRC (CV at 595 nm) LD90 (P. aeruginosa PAO1 [2]; [13]): 64 µmol/L; MBEC from Calgary Biofilm Device (CBD) LD50 (P. aeruginosa PAO1 [6]): 128 µmol/L; MBEC from Calgary Biofilm Device (CBD) LD90 (P. aeruginosa PAO1 [6]): 128 µmol/L |
| N=C(N)NCCC[C@H](NC(=O)[C@H](CCCNC(=N)N)NC(=O)[C@@H](N)CCCNC(=N)N)C(=O)N[C@@H](Cc1c[nH]c2ccccc12)C(=O)N[C@@H](Cc1c[nH]c2ccccc12)C(=O)N[C@@H](Cc1c[nH]c2ccccc12)C(N)=O [RRRWWW-NH2] (H-RRRWWW-NH2) | 16 µmol/L | 128 µmol/L | 64 µmol/L | >128 µmol/L | 1 µM (≈ 1.04 µg/mL) | 1 µM (≈ 1.04 µg/mL) | 32 µM (≈ 33.4 µg/mL) | 128 µM (≈ 134 µg/mL) | 1 µmol/L | 1 µmol/L | 0.5 µmol/L | 4 µmol/L | 4 µM (≈ 4.18 µg/mL) |  |  |  |  |  |  |  |  |
| N=C(N)NCCC[C@H](NC(=O)[C@H](Cc1c[nH]c2ccccc12)NC(=O)[C@H](Cc1c[nH]c2ccccc12)NC(=O)[C@H](Cc1c[nH]c2ccccc12)NC(=O)[C@H](CCCNC(=N)N)NC(=O)[C@@H](N)CCCNC(=N)N)C(N)=O [RRWWWR-NH2] (H-RRWWWR-NH2) | 16 µmol/L | 128 µmol/L | 128 µmol/L | >128 µmol/L | 1 µM (≈ 1.04 µg/mL) | 1 µM (≈ 1.04 µg/mL) | 64 µM (≈ 66.8 µg/mL) | 128 µM (≈ 134 µg/mL) | 1 µmol/L | 1 µmol/L | 1 µmol/L | 4 µmol/L | 4 µM (≈ 4.18 µg/mL) |  |  |  |  |  |  |  |  |
| CC(C)C[C@H](NC(=O)[C@H](Cc1ccccc1)NC(=O)[C@@H]1CCCN1C(=O)[C@H](Cc1c[nH]c2ccccc12)NC(=O)[C@H](Cc1c[nH]c2ccccc12)NC(=O)[C@H](Cc1c[nH]c2ccccc12)NC(=O)[C@@H]1CCCN1C(=O)[C@H](Cc1ccccc1)NC(=O)[C@H](CCN)NC(=O)[C@H](CCN)NC(=O)[C@@H](N)C(C)C)C(=O)N[C@@H](CCN)C(=O)N[C@@H](CCN)C(N)=O [Tritrp-Dab] (H-V[Dab][Dab]FPWWWPFL[Dab][Dab]-NH2; N-terminus assumed) |  |  |  |  |  |  |  |  |  |  |  |  |  | 8 µmol/L | 16 µmol/L | 64 | 16 | 16 | 16 | 16 µmol/L | MBEC at 488 and 530 nm LD90 (P. aeruginosa PAO1 GFP [3]; [14]): 64 µmol/L; MIC at 600 nm LD50 (P. aeruginosa PAO1 GFP [5]; [14]): 8 µM (≈ 13.4 µg/mL); MIC at 600 nm LD90 (P. aeruginosa PAO1 GFP [5]; [14]): 16 µM (≈ 26.8 µg/mL) |
| CC(C)C[C@H](NC(=O)[C@H](Cc1ccccc1)NC(=O)[C@@H]1CCCN1C(=O)[C@H](Cc1c[nH]c2ccccc12)NC(=O)[C@H](Cc1c[nH]c2ccccc12)NC(=O)[C@H](Cc1c[nH]c2ccccc12)NC(=O)[C@@H]1CCCN1C(=O)[C@H](Cc1ccccc1)NC(=O)[C@H](CCCN)NC(=O)[C@H](CCCN)NC(=O)[C@@H](N)C(C)C)C(=O)N[C@@H](CCCN)C(=O)N[C@@H](CCCN)C(N)=O [Tritrp-Orn] (H-V[Orn][Orn]FPWWWPFL[Orn][Orn]-NH2; N-terminus assumed) |  |  |  |  |  |  |  |  |  |  |  |  |  | 16 µmol/L | 16 µmol/L | 128 | 32 | 16 | 16 | 64 µmol/L | MBEC at 488 and 530 nm LD90 (P. aeruginosa PAO1 GFP [3]; [14]): 128 µmol/L; MIC at 600 nm LD50 (P. aeruginosa PAO1 GFP [5]; [14]): 16 µM (≈ 27.7 µg/mL); MIC at 600 nm LD90 (P. aeruginosa PAO1 GFP [5]; [14]): 16 µM (≈ 27.7 µg/mL) |
